According to ChEMBL document CHEMBL2034905, “Synthesis of benzimidazolyl-1,3,4-oxadiazol-2ylthio-N-phenyl (benzothiazolyl) acetamides as antibacterial, antifungal and antituberculosis agents” (Eur J Med Chem, 2012):
Values after ≈ are worked out from the molar mass of the structure shown.

Columns and labels:
[1] = tested on: Mycobacterium tuberculosis; experiment: Antituberculosis activity against Mycobacterium tuberculosis H37Rv by Lowenstein-Jensen method; type: functional
[2] = tested on: Mycobacterium tuberculosis; experiment: Antituberculosis activity against Mycobacterium tuberculosis H37Rv at 6.25 ug/ml by Lowenstein-Jensen method; type: functional
[3] = tested on: Staphylococcus aureus; experiment: Antibacterial activity against Staphylococcus aureus MTCC 96 at 100 ug/disc by paper disc diffusion technique; type: functional; settings: read-out: IZ
[4] = tested on: Bacillus cereus; experiment: Antibacterial activity against Bacillus cereus MTCC 430 at 100 ug/disc by paper disc diffusion technique; type: functional; settings: read-out: IZ
[5] = tested on: Escherichia coli; experiment: Antibacterial activity against Escherichia coli MTCC 739 at 100 ug/disc by paper disc diffusion technique; type: functional; settings: read-out: IZ
[6] = tested on: Pseudomonas aeruginosa; experiment: Antibacterial activity against Pseudomonas aeruginosa MTCC 741 at 100 ug/disc by paper disc diffusion technique; type: functional; settings: read-out: IZ
[7] = tested on: Klebsiella pneumoniae; experiment: Antibacterial activity against Klebsiella pneumoniae MTCC 109 at 100 ug/disc by paper disc diffusion technique; type: functional; settings: read-out: IZ
[8] = tested on: Salmonella typhi; experiment: Antibacterial activity against Salmonella typhi MTCC 733 at 100 ug/disc by paper disc diffusion technique; type: functional, Salmonella enterica subsp. enterica serovar Typhi; settings: Salmonella enterica, read-out: IZ
[9] = tested on: Proteus vulgaris; experiment: Antibacterial activity against Proteus vulgaris MTCC 1771 at 100 ug/disc by paper disc diffusion technique; type: functional; settings: read-out: IZ
[10] = tested on: Shigella flexneri; experiment: Antibacterial activity against Shigella flexneri MTCC 1457 at 100 ug/disc by paper disc diffusion technique; type: functional; settings: read-out: IZ
[11] = tested on: Staphylococcus aureus; experiment: Antibacterial activity against Staphylococcus aureus MTCC 96 by agar streak dilution method; type: functional
[12] = tested on: Bacillus cereus; experiment: Antibacterial activity against Bacillus cereus MTCC 430 by agar streak dilution method; type: functional
[13] = tested on: Escherichia coli; experiment: Antibacterial activity against Escherichia coli MTCC 739 by agar streak dilution method; type: functional
[14] = tested on: Pseudomonas aeruginosa; experiment: Antibacterial activity against Pseudomonas aeruginosa MTCC 741 by agar streak dilution method; type: functional
[15] = tested on: Klebsiella pneumoniae; experiment: Antibacterial activity against Klebsiella pneumoniae MTCC 109 by agar streak dilution method; type: functional
[16] = tested on: Salmonella typhi; experiment: Antibacterial activity against Salmonella typhi MTCC 733 by agar streak dilution method; type: functional, Salmonella enterica subsp. enterica serovar Typhi; settings: Salmonella enterica
[17] = tested on: Proteus vulgaris; experiment: Antibacterial activity against Proteus vulgaris MTCC 1771 by agar streak dilution method; type: functional
[18] = tested on: Shigella flexneri; experiment: Antibacterial activity against Shigella flexneri MTCC 1457 by agar streak dilution method; type: functional
[19] = tested on: Aspergillus niger; experiment: Antifungal activity against Aspergillus niger MTCC 282 at 100 ug/disc by paper disc diffusion technique; type: functional; settings: read-out: IZ
[20] = tested on: Aspergillus fumigatus; experiment: Antifungal activity against Aspergillus fumigatus MTCC 343 at 100 ug/disc by paper disc diffusion technique; type: functional; settings: read-out: IZ
[21] = tested on: Aspergillus clavatus; experiment: Antifungal activity against Aspergillus clavatus MTCC 1323 at 100 ug/disc by paper disc diffusion technique; type: functional; settings: read-out: IZ
[22] = tested on: Candida albicans; experiment: Antifungal activity against Candida albicans MTCC 183 at 100 ug/disc by paper disc diffusion technique; type: functional; settings: read-out: IZ
[23] = tested on: Aspergillus niger; experiment: Antifungal activity against Aspergillus niger MTCC 282 by agar streak dilution method; type: functional
[24] = tested on: Aspergillus fumigatus; experiment: Antifungal activity against Aspergillus fumigatus MTCC 343 by agar streak dilution method; type: functional
[25] = tested on: Aspergillus clavatus; experiment: Antifungal activity against Aspergillus clavatus MTCC 1323 by agar streak dilution method; type: functional
[26] = tested on: Candida albicans; experiment: Antifungal activity against Candida albicans MTCC 183 by agar streak dilution method; type: functional
[27] = tested on: Mycobacterium tuberculosis; experiment: Antituberculosis activity against Mycobacterium tuberculosis H37Rv by BACTEC MGIT method; type: functional

Row | SMILES | zone of inhibition at 100 µg/disc [3] [mm] | zone of inhibition at 100 µg/disc [4] [mm] | zone of inhibition at 100 µg/disc [5] [mm] | zone of inhibition at 100 µg/disc [6] [mm] | zone of inhibition at 100 µg/disc [7] [mm] | zone of inhibition at 100 µg/disc [8] [mm] | zone of inhibition at 100 µg/disc [9] [mm] | zone of inhibition at 100 µg/disc [10] [mm] | MIC [11] [µg/mL] | MIC [12] [µg/mL] | MIC [14] [µg/mL] | MIC [15] [µg/mL] | MIC [16] [µg/mL] | MIC [17] [µg/mL] | MIC [18] [µg/mL] | zone of inhibition at 100 µg/disc [19] [mm] | zone of inhibition at 100 µg/disc [20] [mm] | zone of inhibition at 100 µg/disc [21] [mm] | zone of inhibition at 100 µg/disc [22] [mm] | MIC [23] [µg/mL] | further results
1 | O=C(CSc1nnc(Cn2cnc3ccccc32)o1)Nc1ccc([N+](=O)[O-])cc1 | 20 | 13 | 12 | 20 | 20 | 13 | 14 | 19 | 12.5 (≈ 30.5 µM) | 100 (≈ 244 µM) | 50 (≈ 122 µM) | 100 (≈ 244 µM) | 100 (≈ 244 µM) | 100 (≈ 244 µM) | 100 (≈ 244 µM) | 18 | 18 | 24 | 15 | 50 (≈ 122 µM) | MIC [1]: 100 µg/mL (≈ 244 µM); inhibition at 6.25 µg/mL [2]: 94%; MIC [13]: 100 µg/mL (≈ 244 µM); MIC [24]: 100 µg/mL (≈ 244 µM); MIC [25]: 50 µg/mL (≈ 122 µM); MIC [26]: 100 µg/mL (≈ 244 µM); MIC [27]: > 6.25 µg/mL
2 | N#Cc1ccc(NC(=O)CSc2nnc(Cn3cnc4ccccc43)o2)cc1 | 18 | 19 | 19 | 21 | 24 | 20 | 19 | 17 | 25 (≈ 64 µM) | 50 (≈ 128 µM) | 50 (≈ 128 µM) | 25 (≈ 64 µM) | 50 (≈ 128 µM) | 50 (≈ 128 µM) | 100 (≈ 256 µM) | < 10 | 14 | 13 | 11 | 100 (≈ 256 µM) | MIC [1]: 62.5 µg/mL (≈ 160 µM); inhibition at 6.25 µg/mL [2]: 96%; MIC [13]: 50 µg/mL (≈ 128 µM); MIC [24]: 100 µg/mL (≈ 256 µM); MIC [25]: 100 µg/mL (≈ 256 µM); MIC [26]: 100 µg/mL (≈ 256 µM); MIC [27]: > 6.25 µg/mL
3 | CCOc1ccc(NC(=O)CSc2nnc(Cn3cnc4ccccc43)o2)cc1 | 14 | 18 | 23 | 16 | < 10 | 21 | 25 | 22 | 50 (≈ 122 µM) | 50 (≈ 122 µM) | 100 (≈ 244 µM) | 100 (≈ 244 µM) | 50 (≈ 122 µM) | 12.5 (≈ 30.5 µM) | 25 (≈ 61.1 µM) | 17 | 11 | 16 | 24 | 50 (≈ 122 µM) | MIC [1]: 50 µg/mL (≈ 122 µM); inhibition at 6.25 µg/mL [2]: 98%; MIC [13]: 25 µg/mL (≈ 61.1 µM); MIC [24]: 100 µg/mL (≈ 244 µM); MIC [25]: 100 µg/mL (≈ 244 µM); MIC [26]: 25 µg/mL (≈ 61.1 µM); MIC [27]: > 6.25 µg/mL
4 | O=C(O)c1cn(C2CC2)c2cc(N3CCNCC3)c(F)cc2c1=O [CIPROFLOXACIN] | 30 | 31 | 32 | 33 | 33 | 30 | 31 | 32 | 1.56 (≈ 4.71 µM) | 0.39 (≈ 1.18 µM) | 0.78 (≈ 2.35 µM) | 0.78 (≈ 2.35 µM) | 0.39 (≈ 1.18 µM) | 0.39 (≈ 1.18 µM) | 1.56 (≈ 4.71 µM) |  |  |  |  |  | 
5 | NNC(=O)c1ccncc1 [ISONIAZID] |  |  |  |  |  |  |  |  |  |  |  |  |  |  |  |  |  |  |  |  | MIC [27]: 0.2 µg/mL (≈ 1.46 µM)
6 | CC(=O)N1CCN(c2ccc(OCC3COC(Cn4ccnc4)(c4ccc(Cl)cc4Cl)O3)cc2)CC1 (stereo not given) [KETOCONAZOLE] |  |  |  |  |  |  |  |  |  |  |  |  |  |  |  | 30 | 29 | 31 | 33 | 1.56 (≈ 2.94 µM) | MIC [24]: 0.78 µg/mL (≈ 1.47 µM); MIC [25]: 0.78 µg/mL (≈ 1.47 µM); MIC [26]: 1.56 µg/mL (≈ 2.94 µM)
